Measured values published in patent US7683061B2, “Triazine dimers for the treatment of autoimmune diseases” (ProMetic BioSciences Inc., priority 2003, dated 2010).
Read-outs that look alike come from different tables or passages of the source.

Assays:
[1] = tested on: TNFα production, J774A-1 cells; assay: LPS-induced TNFα production in J774A-1 cells (ELISA); format: cell-based; conditions: Mus musculus, J774.A1, 24 h, read-out: IC50 (μM), inhibition of TNFα released by LPS induction
Method: Effect of compounds on TNFα production was measured by ELISA using J774-1 cells stimulated by LPS. J774-1 cells were cultured in the presence or absence of LPS and compound. Cells were cultured at 37° C. for 24 h and thereafter the supernatants were collected for the determination of the concentration of TNFα by ELISA as recommended by the manufacturer (BD Biosciences). Data was analyzed in Microsoft Excel and the concentration of compound which inhibits 50% of TNFα production (IC50) was calculated using Prism software.

[2] = molecular target: T1, Fc portion of human IgG (binding of protein A to human IgG); assay: Competitive protein A binding ELISA
T1 construct: fused on or other part: Horseradish peroxidase chemically conjugated to the IgG (HRP-IgG)
Method: As described above, this assay evaluates the ability of the exemplified compounds to mimic protein A. Such compounds can bind to the Fc portion of human IgG as ascertained by the inhibition of binding of protein A to human IgG. The competitive protein A binding ELISA assay was performed on a 96-well plate Maxisorp surface to enhance the binding of protein A to the bottom of the plate. The wells were coated with 100 μL of protein A (0.8 μg) and incubated overnight at 4° C. After incubation, unbound protein A was removed by three washes with phosphate buffer saline (PBS). The plate was then incubated with 100 μL/well of a 2% solution of bovine serum albumin (BSA) for 1 h at 37° C. to block non specific protein binding. After incubation, the plate was washed to times with PBS. 50 μL of compound or protein A, diluted in PBS or PBS-20% DMSO at appropriate concentration, were added to the wells followed by addition of 50 μL of peroxidase-conjugated human IgG (HRP-IgG). After 1 h incubation at 37° C., the plate was washed free times with PBS to remove unbound HRP-IgG. Bound HRP-IgG was detected by incubation with 100 μL of 2,2′-Azino-di[3-ethylbenzothiazoline sulfonate]diammonium salt crystals (ABTS) solution for 20 min in the dark at room temperature. The plate was then read at 405 nm on a EL 800, universal Microplate reader (Bio-Tek). Data was analyzed in Microsoft Excel and the concentration of compound which inhibits 50% binding of protein A (IC50) was calculated using Prism software.
Table 1 represents the IC50 of compounds tested in the competitive protein A binding ELISA assay, which consists of a side-by-side analysis in PBS and PBS-20% DMSO. DMSO was used to increase the solubility of some of the compounds.

[3] = tested on: TNFα-induced apoptosis, WEHI-13VAR cells; assay: TNFα induced apoptosis in WEHI-13VAR cells (MTT); format: cell-based, murine; conditions: Mus musculus; for inhibition at 10 µM: 1 × 10^−5M; for inhibition at 20 µM: 2 × 10^−5M; for inhibition at 40 µM: 4 × 10^−5M; for inhibition at 5 µM: 5 × 10^−6M
Method: Effect of compounds on TNFα-induced apoptosis was measured by a standard biological assay using WEHI-13VAR cells. These cells undergo apoptosis when they are incubated in the presence of TNFα and actinomycin D. 2×10^4 WEHI-13VAR cells were incubated in RPMI supplemented with 1% sodium pyruvate and 10% FBS, overnight at 37° C. for cell adherence. The cells were then cultured in the presence of 1 μg/mL of actinomycin D (to inhibit protein synthesis) and 0.04 nM TNFα with or without compounds at 37° C. After 16-24 h, 50 μL of a solution of 2 mg/mL of MTT was added to each well and the plate was then incubated for 4 h at 37° C. Only viable cells metabolize MTT to form formazan salt, which is detectable by the measurement of absorbance at 570 nm. After the incubation, the plate was inverted to remove medium and dead cells. 150 μL DMSO was added to each well to stop the reaction and solubilize the formazan salt. Optical density was read on a EL 800, universal Microplate reader (Bio-Tek). A decrease in the optical density is direct evidence of cell apoptosis induced by TNFα. Compounds were also compared to the activity of an anti-TNFα neutralizing antibody.

[4] = Table 1, PBS-20% DMSO, read-out: IC50 (μM): Assay in PBS-20% DMSO
[5] = Table 1, PBS, read-out: IC50 (μM): Assay in PBS
[6] = Table 2, PBS-20% DMSO, n = 5 or 6, read-out: IC50 (n = 5 or 6) PBS-20% DMSO
[7] = Table 2, PBS, n = 5 or 6, read-out: IC50 (n = 5 or 6) PBS

IC50 [2, 4] [µM] | IC50 [2, 5] [µM] | Compound | also measured
– | – | NCCCNc1nc(NCCc2ccc(Nc3nc(NCCc4ccc(O)cc4)nc(Nc4ccccc4)n3)cc2)nc(Nc2ccccc2)n1 [Compound 24] | IC50 [1]: 11.5 µM
18 | 18 | Nc1ccc(CCNc2nc(Nc3ccccc3)nc(N3CCN(c4nc(NCCO)nc(Nc5ccccc5)n4)CC3)n2)cc1 [Compound 33] | IC50 [1]: 20.6 µM
0.12 | 0.99 | Nc1ccc(CCNc2nc(NCCCCCCNc3nc(NCCc4ccc(N)cc4)nc(Nc4cccc(N)c4)n3)nc(Nc3cccc(N)c3)n2)cc1 [Compound 31] | –
0.08 | 0.1 | Nc1cccc(CNc2nc(Nc3ccc(CNc4nc(N)nc(Nc5cccc(N)c5)n4)cc3)nc(Nc3cccc(N)c3)n2)c1 [Compound 45] | inhibition at 10 µM [3]: 2.9%; inhibition at 20 µM [3]: 4.1%; inhibition at 40 µM [3]: 32.9%; inhibition at 5 µM [3]: -0.3%
0.02 | 0.03 | Nc1cccc(Nc2nc(N)nc(NCc3ccc(CNc4nc(N)nc(Nc5cccc(N)c5)n4)cc3)n2)c1 [Compound 41] | –
0.03 | 0.4 | Nc1ccc(CCNc2nc(NCC3CCN(c4nc(NCCc5ccc(N)cc5)nc(Nc5cccc(N)c5)n4)CC3)nc(Nc3cccc(N)c3)n2)cc1 [Compound 30] | IC50 [2, 6]: 0.033 µM; IC50 [2, 7]: 0.426 µM
0.05 | 0.2 | Nc1ccc(CNc2nc(NCc3ccc(CNc4nc(NCc5ccc(N)cc5)nc(Nc5cccc(N)c5)n4)cc3)nc(Nc3cccc(N)c3)n2)cc1 [Compound 48] | –
35 | – | CC(=O)NCCNc1nc(NCCc2ccc(Nc3nc(NCCc4ccc(O)cc4)nc(Nc4ccccc4)n3)cc2)nc(Nc2ccccc2)n1 [Compound 15] | IC50 [1]: 14.2 µM
0.04 | 0.09 | Nc1cccc(Nc2nc(NCCO)nc(N3CCN(c4nc(Nc5cccc(N)c5)nc(Nc5cccc(N)c5)n4)CC3)n2)c1 [Compound 44] | –
1 | 23 | Cc1ccc(Nc2nc(NCCc3ccc(N)cc3)nc(Nc3ccccc3)n2)cc1CNc1nc(NCCO)nc(Nc2ccccc2)n1 [Compound 34] | –
– | – | COC(=O)c1ccccc1Nc1nc(NCCNc2nc(NCCc3ccc(O)cc3)nc(Nc3ccccc3C(=O)OC)n2)nc(NCCc2ccc(O)cc2)n1 [Compound 2] | inhibition at 10 µM [3]: 43.7%; inhibition at 20 µM [3]: 48.4%; inhibition at 40 µM [3]: 48.3%; inhibition at 5 µM [3]: 37.3%
– | – | COc1ccccc1Nc1nc(NCCCCN)nc(NCCc2ccc(Oc3nc(NCCc4ccc(O)cc4)nc(Nc4ccccc4)n3)cc2)n1 [Compound 23] | IC50 [1]: 16.5 µM
6 | 0.6 | Nc1cccc(Nc2nc(N)nc(Nc3cccc(Nc4nc(N)nc(Nc5cccc(N)c5)n4)c3)n2)c1 [Compound 51] | –
0.2 | 0.2 | Nc1cccc(Nc2nc(NCCO)nc(Nc3ccc(Nc4nc(NCCO)nc(Nc5cccc(N)c5)n4)cc3)n2)c1 [Compound 47] | –
23 | – | Oc1ccc(CCNc2nc(NCc3ccccc3Nc3nc(NCCc4ccc(O)cc4)nc(Nc4ccccc4)n3)nc(Nc3ccccc3)n2)cc1 [Compound 37] | –
45 | – | Oc1ccc(CCNc2nc(NCCNc3nc(NCCc4ccc(O)cc4)nc(Sc4ccccc4)n3)nc(Sc3ccccc3)n2)cc1 [Compound 11b] | IC50 [1]: 23.3 µM
1 | 0.4 | Nc1cccc(Nc2nc(Nc3cccc(Nc4nc(Nc5cccc(N)c5)nc(NC(CO)CO)n4)c3)nc(NC(CO)CO)n2)c1 [Compound 50] | –
– | – | NCCNc1nc(NCc2cccc(CNc3nc(NCCc4ccc(O)cc4)nc(Nc4ccccc4)n3)c2)nc(Nc2ccccc2)n1 [Compound 40] | IC50 [1]: 87.2 µM

IC50 [2, 4] [µM] | IC50 [2, 5] [µM] | Compound | also measured
85 | 69 | O=C(O)[C@H](Nc1nc(NCCNc2nc(NCCc3ccc(O)cc3)nc(N[C@@H](C(=O)O)c3ccccc3)n2)nc(NCCc2ccc(O)cc2)n1)c1ccccc1 [Compound 10] | –
– | – | OCCNc1nc(NCCc2ccc(Oc3nc(NCCc4ccc(O)cc4)nc(Nc4ccccc4)n3)cc2)nc(Nc2ccccc2)n1 [Compound 21] | IC50 [1]: 4.8 µM
16 | – | Nc1ccc(CCNc2nc(Nc3ccccc3)nc(N3CCN(c4nc(NCCc5ccc(N)cc5)nc(Nc5ccccc5)n4)CC3)n2)cc1 [Compound 36] | –
55 | 36 | NCCCCNc1nc(NCCc2ccc(Nc3nc(NCCc4ccc(O)cc4)nc(Nc4ccccc4)n3)cc2)nc(Nc2ccccc2)n1 [Compound 16] | IC50 [1]: 13.6 µM
0.05 | 0.08 | Nc1cccc(Nc2nc(NCCO)nc(Nc3cccc(CNc4nc(Nc5cccc(N)c5)nc(Nc5cccc(N)c5)n4)c3)n2)c1 [Compound 43] | –
2 | 33 | Nc1ccc(CCNc2nc(NCC3CCN(c4nc(NCCc5ccc(N)cc5)nc(Nc5ccccc5)n4)CC3)nc(Nc3ccccc3)n2)cc1 [Compound 32] | –
0.5 | 0.3 | Nc1cccc(Nc2nc(NCCO)nc(Nc3cccc(Nc4nc(NCCO)nc(Nc5cccc(N)c5)n4)c3)n2)c1 [Compound 49] | –
0.8 | 0.2 | Nc1cccc(Nc2nc(N)nc(Nc3cccc(Nc4nc(NCCO)nc(Nc5cccc(N)c5)n4)c3)n2)c1 [Compound 46] | –
0.003 | 0.2 | Nc1ccc(CCNc2nc(Nc3cccc(N)c3)nc(N3CCN(c4nc(NCCc5ccc(N)cc5)nc(Nc5cccc(N)c5)n4)CC3)n2)cc1 [Compound 29] | IC50 [2, 6]: 0.0029 µM; IC50 [2, 7]: 0.225 µM
0.4 | 2.4 | Nc1ccc(CNc2nc(NCCNc3nc(NCc4ccc(N)cc4)nc(Nc4ccccc4)n3)nc(Nc3ccccc3)n2)cc1 [Compound 6] | –
– | – | COc1ccccc1Nc1nc(NCCN)nc(NCCc2ccc(Nc3nc(NCCc4ccc(O)cc4)nc(Nc4ccccc4)n3)cc2)n1 [Compound 22] | IC50 [1]: 62.1 µM
– | – | Oc1ccc(CCNc2nc(Nc3ccccc3)nc(Nc3cccc(Nc4nc(NCCc5ccc(O)cc5)nc(Nc5ccccc5)n4)c3)n2)cc1 [Compound 38] | IC50 [1]: 9.5 µM
43 | – | Oc1ccc(CCNc2nc(Nc3ccccc3)nc(N[C@H](COc3nc(NCCc4ccc(O)cc4)nc(Nc4ccccc4)n3)c3ccccc3)n2)cc1 [Compound 39] | –
28 | – | Oc1ccc(CCNc2nc(Nc3ccccc3)nc(Nc3ccc(CNc4nc(NCCc5cnc[nH]5)nc(Nc5ccccc5)n4)cc3)n2)cc1 [Compound 27] | –
– | – | OCCNc1nc(NCC2CCN(c3nc(NCCO)nc(Nc4ccccc4)n3)CC2)nc(Nc2ccccc2)n1 [Compound 26] | inhibition at 10 µM [3]: 27.3%; inhibition at 20 µM [3]: 38%; inhibition at 40 µM [3]: -11.5%; inhibition at 5 µM [3]: 9.7%
1 | 23 | Nc1ccc(CCNc2nc(Nc3ccccc3)nc(Nc3cccc(CNc4nc(NCCO)nc(Nc5ccccc5)n4)c3)n2)cc1 [Compound 35] | –
28 | – | COC(=O)[C@H](Cc1ccc(O)cc1)Nc1nc(NCCNc2nc(NCCc3cc4ccccc4[nH]3)nc(N[C@@H](Cc3ccc(O)cc3)C(=O)OC)n2)nc(NCCc2cc3ccccc3[nH]2)n1 [Compound 8] | –
0.05 | 0.05 | Nc1cccc(Nc2nc(NCCO)nc(Nc3ccc(CNc4nc(Nc5cccc(N)c5)nc(Nc5cccc(N)c5)n4)cc3)n2)c1 [Compound 42] | inhibition at 10 µM [3]: -1.7%; inhibition at 20 µM [3]: 0.5%; inhibition at 40 µM [3]: 30.4%; inhibition at 5 µM [3]: -3.1%

Compound | IC50 [2, 4] [µM] | IC50 [2, 5] [µM] | also measured
O=C(O)c1ccccc1Nc1nc(NCCNc2nc(NCCc3ccc(O)cc3)nc(Nc3ccccc3C(=O)O)n2)nc(NCCc2ccc(O)cc2)n1 [Compound 9] | 50 | – | –
